Experimental data published in publication PMC12415477, “Electrostatic interactions influence diazabicyclooctane inhibitor potency against OXA-48-like β-lactamases” (RSC Medicinal Chemistry, 2025).

Experiments:
[1] = system: O=C(Cc1cccs1)N[C@@H]1C(=O)N2C(C(=O)O)=C(/C=C/c3ccc([N+](=O)[O-])cc3[N+](=O)[O-])CS[C@H]12; assay: purified protein, by the assay type; details: other: 1 nM enzyme, pH 7.6
[2] = target: OXA-405 β-lactamase (mature, residues 23-261); assay: crystal structure; X-ray structures of the purified enzymes, uncomplexed and soaked with nacubactam or avibactam; crystals grown in 0.1 M HEPES pH 7.5 or 0.1 M Tris pH 8.5-9.0 with PEG 400 or PEG 550; homodimer seen in the crystal, chloride ion at the dimer interface
OXA-48 [3] = target: T1, OXA-48 (Klebsiella pneumoniae, UniProt Q6XEC0); details: cited from earlier work; for Binding affinities and complex residence times against OXA-48: in words
T1 construct: pOPINF-OXA-48^(23-265) (previously cloned as described in Cahill et al); hexahistidine tag with 3C protease site (pOPINF) (N, cleaved yes); made in house; host or cells: E. coli BL21-DE3

OXA-405 [4] = target: T2, OXA-405 (Klebsiella pneumoniae, UniProt Q6XEC0, DEL213-216); details: 1 nM enzyme, pH 7.6
Method: (§1) All enzyme kinetics experiments were performed in 50 mM HEPES pH 7.6, 50 mM NaPO4 buffer supplemented with 50 mM NaHCO3 and 50 μg mL^−1 bovine serum albumin (BSA) in 96-well half area plates (Greiner, 675801).

OXA-163 [5] = target: T3, OXA-163 (Klebsiella pneumoniae, UniProt Q6XEC0, DEL214-217/S212D); details: 1 nM enzyme, pH 7.6
Method: as §1

OXA-405 [6] = assay: IC50 determination, inhibition of nitrocefin hydrolysis by OXA-405; format: biochemical; details: IC50 OXA-48 / IC50 OXA-405
OXA-405 [7] = target: T2, OXA-405; assay: as above; format: biochemical; set-up: genes encoding the mature OXA-163^23-261 (GenBank HQ700343) and OXA-405^23-261 (GenBank KM589641) open reading frames; hexahistidine tag with 3C protease site (pOPINF) (N, cleaved yes); made in house; host or cells: E. coli BL21-DE3
OXA-48 [8] = target: T1, OXA-48; assay: IC50 determination, inhibition of nitrocefin hydrolysis by OXA-48; format: biochemical; details: for Fold difference in IC50, nacubactam versus avibactam, OXA-48: ratio nacubactam IC50 / avibactam IC50
OXA-163 [9] = assay: IC50 determination, inhibition of nitrocefin hydrolysis by OXA-163; format: biochemical; details: IC50 OXA-48 / IC50 OXA-163
OXA-163 [10] = target: T3, OXA-163; assay: as above; format: biochemical; set-up: genes encoding the mature OXA-163^23-261 (GenBank HQ700343); hexahistidine tag with 3C protease site (pOPINF) (N, cleaved yes); made in house; host or cells: E. coli BL21-DE3
crystal structure = target: the molecule itself; assay: crystal structure
[11] = ratio nacubactam IC50 / avibactam IC50

## OXA-48 (Klebsiella pneumoniae)
[1]
  Km: 114.4 µM
  kcat: 515.0 s⁻¹
  kcat/Km: 5.2e+06 M⁻¹ s⁻¹

## OXA-405 β-lactamase (mature, residues 23-261) (enzyme)
[2]
  stoichiometry N: 2

## O=C(NNC(=O)[C@@H]1CC[C@@H]2CN1C(=O)N2OS(=O)(=O)O)C1CNC1 [FPI-1602]
OXA-48 [3]
  Binding affinities and complex residence times against OXA-48: lower binding affinities and complex residence times

## O=C(Cc1cccs1)N[C@@H]1C(=O)N2C(C(=O)O)=C(/C=C/c3ccc([N+](=O)[O-])cc3[N+](=O)[O-])CS[C@H]12 [nitrocefin]
OXA-405 [4]
  kcat, nitrocefin hydrolysis by OXA-405: 113.9 s⁻¹
OXA-405 [4]; read-out: KM, nitrocefin hydrolysis by OXA-405
  Km: 33.9 µM
OXA-163 [5]
  kcat, nitrocefin hydrolysis by OXA-163: 64.5 s⁻¹
OXA-163 [5]; read-out: KM, nitrocefin hydrolysis by OXA-163
  Km: 13.4 µM

## O=C(NO[C@@H]1CCNC1)[C@@H]1CC[C@@H]2CN1C(=O)N2OS(=O)(=O)O [FPI-1465]
OXA-48 [3]
  Binding affinities and complex residence times against OXA-48: lower binding affinities and complex residence times

## NCCONC(=O)[C@@H]1CC[C@@H]2CN1C(=O)N2OS(=O)(=O)O [nacubactam]
OXA-405 [6]
  Increase in inhibition potency towards OXA-405 compared to OXA-48: 1.9 fold
OXA-405 [7]
  IC50: 10.6 µM
OXA-405 [7]; [11]
  Fold difference in IC50, nacubactam versus avibactam, OXA-405: 10.7 fold
OXA-48 [8]; 1 nM enzyme pre-incubated 10 min with inhibitor, 75 μM nitrocefin, pH 7.6, read-out: IC50 against OXA-48
  IC50: 19.9 µM
OXA-48 [8]
  Fold difference in IC50, nacubactam versus avibactam, OXA-48: 77 fold
OXA-48 [8]; listed as Nacubactam
  Fold difference in IC50, nacubactam versus avibactam, OXA-48: 76.6 fold
OXA-48 [3]
  Decrease in enzyme : inhibitor residence time (t1/2) compared to avibactam, OXA-48: approximately 37 fold
  Increase in dissociation rate (koff) compared to avibactam, OXA-48: ~36 fold
OXA-163 [9]
  Increase in inhibition potency towards OXA-163 compared to OXA-48: 16.2 fold
OXA-163 [10]
  IC50: 1.23 µM
OXA-163 [10]; [11]
  Fold difference in IC50, nacubactam versus avibactam, OXA-163: 6.2 fold

B1: OXA-163 β-lactamase (mature, residues 23-261) (enzyme)
chain: KEWQENKSWNAHFTEHKSQGVVVLWNENKQQGFTNNLKRANQAFLPASTFKIPNSLIALDLGVVKDEHQVFKWDGQTRDIATWNRDHNLITAMKYSVVPVYQEFARQIGEARMSKMLHAFDYGNEDISGNVDSFWLDGGIRISATEQISFLRKLYHNKLHVSERSQRIVKQAMLTEANGDYIIRAKTGYDTKIGWWVGWVELDDNVWFFAMNMDMPTSDGLGLRQAITKEVLKQEKIIP
notes: source: E. coli BL21-DE3, purified (Ni-NTA, 3C protease cleavage, second Ni-NTA, Superdex 75 SEC)
Crystal structure
  stoichiometry N: 2

B2: OXA-48 β-lactamase (residues 23-265) (enzyme)
chain: KEWQENKSWNAHFTEHKSQGVVVLWNENKQQGFTNNLKRANQAFLPASTFKIPNSLIALDLGVVKDEHQVFKWDGQTRDIATWNRDHNLITAMKYSVVPVYQEFARQIGEARMSKMLHAFDYGNEDISGNVDSFWLDGGIRISATEQISFLRKLYHNKLHVSERSQRIVKQAMLTEANGDYIIRAKTGYSTRIEPKIGWWVGWVELDDNVWFFAMNMDMPTSDGLGLRQAITKEVLKQEKIIP
notes: also called OXA-48^(23-265); OXA-48 carbapenemase; source: E. coli BL21-DE3, purified (Ni-NTA, 3C protease cleavage, second Ni-NTA, Superdex 75 SEC)
Crystal structure
  stoichiometry N: 2
